The source of these data is patent US20090264433A1, “Compounds, Compositions and Methods Comprising Triazine Derivatives” (Institute for OneWorld Health, priority 2008, published 2009).

Molecules are shown by their SMILES. Structures can show the parent of a compound that is named as a salt.

In this experiment the target is T1, CFTR channel in human colonic T84 cells (Homo sapiens, UniProt P13569).
T1 construct: results in the phosphorylation and opening of CFTR anion channels; host or cells: human colonic T84 cells
T1 sequence (P13569 whole entry): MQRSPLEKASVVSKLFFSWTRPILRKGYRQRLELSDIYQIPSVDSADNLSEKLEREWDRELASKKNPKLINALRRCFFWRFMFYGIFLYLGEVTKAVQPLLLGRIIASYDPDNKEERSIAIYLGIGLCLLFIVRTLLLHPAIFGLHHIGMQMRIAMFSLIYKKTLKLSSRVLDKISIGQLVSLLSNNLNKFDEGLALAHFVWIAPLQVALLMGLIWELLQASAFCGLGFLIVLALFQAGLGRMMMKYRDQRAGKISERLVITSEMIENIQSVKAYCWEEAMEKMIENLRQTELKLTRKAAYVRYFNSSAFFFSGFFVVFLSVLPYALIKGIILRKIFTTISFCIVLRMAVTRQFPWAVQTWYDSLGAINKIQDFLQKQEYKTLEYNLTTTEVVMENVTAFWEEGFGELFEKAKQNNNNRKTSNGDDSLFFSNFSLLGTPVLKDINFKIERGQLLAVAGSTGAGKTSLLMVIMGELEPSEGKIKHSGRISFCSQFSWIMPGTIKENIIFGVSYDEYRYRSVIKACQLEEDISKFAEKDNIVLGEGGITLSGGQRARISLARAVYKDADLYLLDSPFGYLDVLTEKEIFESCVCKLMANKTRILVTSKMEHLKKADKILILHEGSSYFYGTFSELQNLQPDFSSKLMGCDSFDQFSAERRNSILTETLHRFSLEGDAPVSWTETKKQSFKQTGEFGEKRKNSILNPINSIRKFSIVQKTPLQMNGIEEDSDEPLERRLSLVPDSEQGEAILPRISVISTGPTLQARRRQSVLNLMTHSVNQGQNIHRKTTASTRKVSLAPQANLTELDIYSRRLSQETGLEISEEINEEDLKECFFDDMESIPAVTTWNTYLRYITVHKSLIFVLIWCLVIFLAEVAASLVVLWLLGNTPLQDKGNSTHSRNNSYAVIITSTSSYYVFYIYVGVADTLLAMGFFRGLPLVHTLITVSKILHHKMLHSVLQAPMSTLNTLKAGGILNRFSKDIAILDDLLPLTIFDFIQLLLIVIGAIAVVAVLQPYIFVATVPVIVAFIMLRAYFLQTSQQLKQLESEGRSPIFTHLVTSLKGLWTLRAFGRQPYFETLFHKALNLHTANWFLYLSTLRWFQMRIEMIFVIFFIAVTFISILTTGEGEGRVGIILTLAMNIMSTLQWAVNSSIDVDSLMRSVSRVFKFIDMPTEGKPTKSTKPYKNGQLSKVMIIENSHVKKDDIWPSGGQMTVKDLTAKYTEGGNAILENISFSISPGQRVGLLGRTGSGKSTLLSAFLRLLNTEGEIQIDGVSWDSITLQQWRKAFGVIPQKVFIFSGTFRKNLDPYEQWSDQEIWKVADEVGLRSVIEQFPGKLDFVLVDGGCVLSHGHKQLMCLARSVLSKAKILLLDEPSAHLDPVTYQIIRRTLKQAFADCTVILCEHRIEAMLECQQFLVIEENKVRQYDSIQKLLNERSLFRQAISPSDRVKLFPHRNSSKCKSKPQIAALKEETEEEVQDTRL
Put plainly: T84 assay (FLIPR membrane potential dye, forskolin/IBMX-stimulated CFTR). Type of experiment: cell-based. As to conditions: average of at least 2 runs unless annotated n = 1. Summed up:
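T84 cells (25,000/well, grown overnight) were washed in HBSS with 10 mM Hepes, then loaded with FLIPR Red membrane potential dye for 45 min with or without compound. CFTR was stimulated with 10 μM forskolin plus 100 μM IBMX after a 10 s baseline. Depolarization was tracked as a fluorescence increase, read every second for 150 s.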
On to `Oc1c(Br)cc(-c2cnc(OCc3ccccc3Cl)nn2)cc1Br` [Compound 18, 2,6-dibromo-4-(3-(2-chlorobenzyloxy)-1,2,4-triazin-6-yl)phenol], for which the IC50 – broadly, the midpoint of a concentration-inhibition curve – is 1.18 µM. In the case of `Oc1c(Cl)cc(-c2cnc(OCc3ccc(F)c(F)c3)nn2)cc1Cl` [Compound 147, 2,6-dichloro-4-(3-(3,4-difluorobenzyloxy)-1,2,4-triazin-6-yl)phenol], it took 2.83 µM to reach half-maximal inhibition (IC50). The molecule `CC(C)(C)OC(=O)N1CCN(Cc2ccc(COc3ncc(-c4cc(Cl)c(O)c(Cl)c4)nn3)cc2)CC1` [Compound 145, tert-butyl 4-(4-((6-(3,5-dichloro-4-hydroxyphenyl)-1,2,4-triazin-3-yloxy)methyl)benzyl)piperazine1-carboxylate, ammonium salt] yielded an IC50 of 1.55 µM.

For `CN(Cc1ccc(COc2ncc(-c3cc(Cl)c(O)c(Cl)c3)nn2)cc1)Cc1ccc(CN2CCCCC2)cc1` [Compound 208, 2,6-dichloro-4-(3-(4-((methyl(4-(piperidin-1-ylmethyl)benzyl)amino)methyl)benzyloxy)-1,2,4-triazin-6-yl)phenol, formate salt], the IC50 amounted to 8.24 µM. On to `Cc1cc(OCc2ncc(-c3cc(Br)c(O)c(Br)c3)nn2)cc(C)c1Br` [Compound 54, 2,6-dibromo-4-(3-((4-bromo-3,5-dimethylphenoxy)methyl)-1,2,4-triazin-6-yl)phenol], for which inhibition was half-maximal at 22 µM (IC50). To `Oc1c(Cl)cc(-c2cnc(OCc3ccc(CNC(CN4CCCC4)c4ccccc4)cc3)nn2)cc1Cl` (centres unmarked) [Compound 194, 2,6-dichloro-4-(3-(4-((1-phenyl2-(pyrrolidin-1-yl)ethylamino)methyl)benzyloxy)-1,2,4-triazin-6-yl)phenol] belongs 18.9 µM; to `OCCN(Cc1ccc(COc2ncc(-c3cc(Cl)c(O)c(Cl)c3)nn2)cc1)Cc1ccccc1Cl` [Compound 172, 2,6-dichloro-4-(3-(4-(((2-chlorobenzyl)(2-hydroxyethyl)amino)methyl)benzyl-ozyloxy)-1,2,4-triazin-6-yl)phenol], 3.36 µM. In the case of `Oc1c(Br)cc(-c2cnc(OCc3ccccc3)nn2)cc1Br` [Compound 19, 4-(3-(benzyloxy)-1,2,4-triazin-6-yl)-2,6-dibromophenol], the IC50 was determined as 1.37 µM.

Molecule `CN(Cc1ccc(COc2ncc(-c3cc(Cl)c(O)c(Cl)c3)nn2)cc1)CC(O)c1ccccc1` (centres unmarked) [Compound 161, 2,6-dichloro-4-(3-(4-(((2-hydroxy-2-phenylethyl)(methyl)amino)methyl)benzyloxy)-1,2,4-triazin-6-phenol, formate salt] registered an IC50 of 18.3 µM. `CN(Cc1ccc(COc2ncc(-c3cc(Cl)c(O)c(Cl)c3)nn2)cc1)Cc1ccc(-c2ccncc2)cc1` [Compound 187, 2,6-dichloro-4-(3-(4-((methyl(4-(pyridin-4-yl)benzyl)amino)methyl)benzyl-oxy)-1,2,4-triazin-6-yl)phenol]: the half-inhibitory concentration (IC50) was 3.79 µM.

For `Oc1c(Br)cc(-c2cnc(OCc3ccc(Br)cc3)nn2)cc1Br` [Compound 24, 2,6-Dibromo-4-(3-(4-bromobenzyloxy)-1,2,4-triazin-6-yl)phenol], the IC50 amounted to 3.02 µM. Molecule `CN(Cc1ccc(COc2ncc(-c3cc(Cl)c(O)c(Cl)c3)nn2)cc1)Cc1ccc2ncccc2c1` [Compound 189, 2,6-dichloro-4-(3-(4-((methyl(quinolin-6-ylmethyl)amino)methyl)benzyl-oxy)-1,2,4-triazin-6-yl)phenol] had a half-inhibitory concentration (IC50) of 4.72 µM. Turning to `CN(Cc1ccc(COc2ncc(-c3cc(Cl)c(O)c(Cl)c3)nn2)cc1)C(CN1CCOCC1)c1ccccc1` (centres unmarked) [Compound 196, 2,6-dichloro-4-(3-(4-((methyl(2-morpholino-1-phenylethyl)amino)methyl)benzyloxy)-1,2,4-triazin-6-yl)phenol], half-maximal inhibition (IC50) required 5.89 µM.

Consider `O=C(c1ccccc1Cl)N1CCN(Cc2ccc(COc3ncc(-c4cc(Cl)c(O)c(Cl)c4)nn3)cc2)CC1` [Compound 220, (2-chlorophenyl)(4-(4-((6-(3,5-dichloro-4-hydroxyphenyl)-1,2,4-triazin-3-yloxy)methyl)benzyl)piperazin1-yl)methanone], for which the IC50 is 1.89 µM.

Turning to `Oc1c(Cl)cc(-c2cnc(OCc3ccc(CN4CCC(O)(c5ccccc5)CC4)cc3)nn2)cc1Cl` [Compound 173, 1-(4-((6-(3,5-dichloro-4-hydroxyphenyl)-1,2,4-triazin-3-yloxy)methyl)benzyl)-4-phenylpiperidin-4-ol], the half-maximal inhibitory concentration (IC50) was 28.4 µM.

In the case of `Oc1c(Br)cc(-c2cnc(OCc3cnc(Br)s3)nn2)cc1Br` [Compound 118, 2,6-dibromo-4-(3-((2-bromothiazol-5-yl)methoxy)-1,2,4-triazin-6-yl)phenol], half-maximal inhibition (IC50) required 3.23 µM. Then `Oc1c(Br)cc(-c2cnc(OCc3cccc(Cl)c3)nn2)cc1Br` [Compound 7, 2,6-dibromo-4-(3-(3-chlorobenzyloxy)-1,2,4-triazin-6-yl)phenol], with 0.72 µM; and `O=C(COc1ccccc1)N1CCN(Cc2ccc(COc3ncc(-c4cc(Cl)c(O)c(Cl)c4)nn3)cc2)CC1` [Compound 155, 1-(4-(4-((6-(3,5-dichloro-4-hydroxyphenyl)-1,2,4-triazin-3-yloxy)methyl)benzyl)piperazin1-yl)-2-phenoxyethanone], with 4.95 µM; and `Oc1c(Br)cc(-c2cnc(OCCc3cccc4ccccc34)nn2)cc1Br` [Compound 1, 2,6-dibromo-4-(3-(2-(naphthalen-1-yl)ethoxy)-1,2,4-triazin-6-yl)phenol], with 0.26 µM. The molecule `CC(C)(C)OC(=O)N1CCC(COc2ncc(-c3cc(Cl)c(O)c(Cl)c3)nn2)(c2ccccc2)CC1` [Compound 139, tert-butyl 4-((6-(3,5-dichloro-4-hydroxyphenyl)-1,2,4-triazin-3-yloxy)methyl)-4-phenylpiperidine-1-carboxylate] showed an IC50 of 3.04 µM. As to `Oc1c(Cl)cc(-c2cnc(OCc3cccc4ccccc34)nn2)cc1Cl` [Compound 116, 2,6-dichloro-4-(3-(naphthalen-1-ylmethoxy)-1,2,4-triazin-6-yl)phenol], the 50% inhibitory concentration (IC50) came to 1.89 µM. To `Oc1c(Br)cc(-c2cnc(COc3ccc(-c4ccccc4)cc3)nn2)cc1Br` [Compound 55, 4-(3-((biphenyl-4-yloxy)methyl)-1,2,4-triazin-6-yl)-2,6-dibromophenol] belongs 22.9 µM. To `Oc1c(Br)cc(-c2cnc(OCc3ccc(F)c(F)c3)nn2)cc1Br` [Compound 3, 2,6-dibromo-4-(3-(3,4-difluorobenzyloxy)-1,2,4-triazin-6-yl)phenol] belongs 0.48 µM; to `Oc1c(Br)cc(-c2cnc(OCCc3ccc(Br)cc3)nn2)cc1Br` [Compound 2, 2,6-dibromo-4-(3-(4-bromophenethoxy)-1,2,4-triazin-6-yl)phenol], 0.32 µM. To `OCCN(Cc1ccc(COc2ncc(-c3cc(Cl)c(O)c(Cl)c3)nn2)cc1)Cc1cccnc1` [Compound 191, 2,6-dichloro-4-(3-(4-(((2-hydroxyethyl)(pyridin-3-ylmethyl)amino)methyl)benzyl-oxy)-1,2,4-triazin-6-yl)phenol] belongs 19.8 µM; to `CCN(Cc1ccccc1)Cc1ccc(COc2ncc(-c3cc(Cl)c(O)c(Cl)c3)nn2)cc1` [Compound 192, 4-(3-(4-((benzyl(ethyl)amino)methyl)benzyloxy)-1,2,4-triazin-6-yl)-2,6-dichlorophenol], 2.13 µM.
